Tested on: NCI-H226 complex tumor spheroids, viability
Assay: Anticancer human tumor NCI-H226 cell line growth inhibition;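 note: spheroids exposed to compound for 7 days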;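 for viability, T/C: 100% = DMSO vehicle control viability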
Conditions: for IC50: curve of first compound; for viability, T/C: stronger effect = lower value
Method in brief: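 Complex spheroids of malignant cells with endothelial cells and mesenchymal stem cells; agents alone or combined, from near clinical Cmax (or 10 microM if unknown) down in half-log steps, 0.25% DMSO final.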

[1] = second compound 0.003 µM, first compound 0.0316 µM
[2] = second compound 0.003 µM, first compound 0.1 µM
[3] = second compound 0.003 µM, first compound 0.316 µM
[4] = second compound 0.003 µM, first compound 1 µM
[5] = second compound 0.003 µM, first compound 3.16 µM
[6] = second compound 0.003 µM, first compound 10 µM
[7] = second compound 0.00949 µM, first compound 0.0316 µM
[8] = second compound 0.00949 µM, first compound 0.1 µM
[9] = second compound 0.00949 µM, first compound 0.316 µM
[10] = second compound 0.00949 µM, first compound 1 µM
[11] = second compound 0.00949 µM, first compound 3.16 µM
[12] = second compound 0.00949 µM, first compound 10 µM
[13] = second compound 0.03 µM, first compound 0.0316 µM
[14] = second compound 0.03 µM, first compound 0.1 µM
[15] = second compound 0.03 µM, first compound 0.316 µM
[16] = second compound 0.03 µM, first compound 1 µM
[17] = second compound 0.03 µM, first compound 3.16 µM
[18] = second compound 0.03 µM, first compound 10 µM
[19] = second compound 0.0949 µM, first compound 0.0316 µM
[20] = second compound 0.0949 µM, first compound 0.1 µM
[21] = second compound 0.0949 µM, first compound 0.316 µM
[22] = second compound 0.0949 µM, first compound 1 µM
[23] = second compound 0.0949 µM, first compound 3.16 µM
[24] = second compound 0.0949 µM, first compound 10 µM
[25] = second compound 0.3 µM, first compound 0.0316 µM
[26] = second compound 0.3 µM, first compound 0.1 µM
[27] = second compound 0.3 µM, first compound 0.316 µM
[28] = second compound 0.3 µM, first compound 1 µM
[29] = second compound 0.3 µM, first compound 3.16 µM
[30] = second compound 0.3 µM, first compound 10 µM

Row | SMILES | IC50 (second compound 0.003 µM) | IC50 (second compound 0.00949 µM) | IC50 (second compound 0.03 µM) | IC50 (second compound 0.0949 µM) | IC50 (second compound 0.3 µM) | viability, T/C [1] | viability, T/C [2] | viability, T/C [3] | viability, T/C [4] | viability, T/C [5] | viability, T/C [6] | viability, T/C [7] | viability, T/C [8] | viability, T/C [9] | viability, T/C [10] | viability, T/C [11] | viability, T/C [12] | viability, T/C [13] | viability, T/C [14] | viability, T/C [15] | further results
1 | CC(C)n1c(=O)n(C)c2cnc3cc(F)c(-c4ccc(OCCCN5CCCCC5)nc4)cc3c21 + CC[C@@]1(O)C(=O)OCc2c1cc1n(c2=O)Cc2cc3c(CN(C)C)c(O)ccc3nc2-1 | 6.02 µM | 5.72 µM | 5.24 µM | 4.41 µM | 5.01 µM | 99.8% | 92.3% | 94.5% | 93.9% | 82.3% | 24.5% | 86.4% | 86.5% | 86.5% | 86.3% | 84% | 17.9% | 81.4% | 78.3% | 83.2% | viability, T/C [16]: 75.4%; viability, T/C [17]: 73.2%; viability, T/C [18]: 21%; viability, T/C [19]: 87.4%; viability, T/C [20]: 85.3%; viability, T/C [21]: 75.7%; viability, T/C [22]: 77.9%; viability, T/C [23]: 61.5%; viability, T/C [24]: 22.8%; viability, T/C [25]: 92.2%; viability, T/C [26]: 84.3%; viability, T/C [27]: 73.4%; viability, T/C [28]: 84.1%; viability, T/C [29]: 71.8%; viability, T/C [30]: 17%
2 | COc1ccc([C@@H](O)c2cc(-c3ncnc4cc(N5CCOCC5)ccc34)c(F)cc2Cl)nn1 + CC[C@@]1(O)C(=O)OCc2c1cc1n(c2=O)Cc2cc3c(CN(C)C)c(O)ccc3nc2-1 | 4.24 µM | 2.92 µM | 1.88 µM | 2.48 µM | 1.52 µM | 98.2% | 96.3% | 88.3% | 71.1% | 56.7% | 34.7% | 87.8% | 98.7% | 90.6% | 74.5% | 48.9% | 35.2% | 79.6% | 81.7% | 75.6% | viability, T/C [16]: 57.1%; viability, T/C [17]: 44.1%; viability, T/C [18]: 30.2%; viability, T/C [19]: 90.4%; viability, T/C [20]: 83.1%; viability, T/C [21]: 74.8%; viability, T/C [22]: 65.2%; viability, T/C [23]: 44.8%; viability, T/C [24]: 30.3%; viability, T/C [25]: 68.1%; viability, T/C [26]: 73.2%; viability, T/C [27]: 65.9%; viability, T/C [28]: 55.8%; viability, T/C [29]: 39.8%; viability, T/C [30]: 30.8%

Source: PubChem BioAssay AID1845210 (Molecular Pharmacology Branch, DTP, NCI, 2023)
